For assay [1] the following is noted: greater than progesterone; cited from earlier work.
The next assay deals with liver C3A cells. Briefly: Microarray analysis of SEQ ID NO:49 expression in steroid-treated C3A cells. The assay is classed as cell-based, human. The conditions noted are these: for differential expression of SEQ ID NO:49: liver C3A cells treated with one steroid, microarray. From the text: The human C3A cell line is a clonal derivative of HepG2/C3 and has been established as an in vitro model of the mature human liver (Mickelson et al. (1995) Hepatology 22:866-875; Nagendra et al. (1997) Am J Physiol 272:G408-G416). […] These experiments indicate that SEQ ID NO:49 is useful in diagnostic assays for liver diseases and as a potential biological marker and therapeutic agent in the treatment of liver diseases and disorders.

Another assay has as its system C3A cells. Briefly: Microarray analysis of SEQ ID NO:59 expression in C3A cells treated with progesterone or budenoside. It counts as cell-based, human. The conditions noted are these: early confluent C3A cells, 10 μM, at each time point (1, 3, and 6 hours), versus untreated C3A cells. From the text: The human C3A cell line is a clonal derivative of HepG2/C3 (hepatoma cell line, isolated from a person with liver tumor), which was selected for strong contact inhibition of growth. The use of a clonal population enhances the reproducibility of the cells. C3A cells have many characteristics of primary human hepatocytes in culture: i) expression of insulin receptor and insulin-like growth factor II receptor; ii) secretion of a high ratio of serum albumin compared with α-fetoprotein iii) conversion of ammonia to urea and glutamine; iv) metabolism of aromatic amino acids; and v) proliferation in glucose-free and insulin-free medium. The C3A cell line is now well established as an in vitro model of the mature human liver (Mickelson et al. (1995) Hepatology 22:866-875; Nagendra et al. (1997) Am J Physiol 272:G408-G416). Early Confluent C3A cells were treated with progesterone or budenoside at 1, 10, and 100 μM for 1, 3, and 6 hours. The treated cells were compared to untreated early confluent C3A cells. […] Therefore, SEQ ID NO:59 may be useful in monitoring of, and diagnostic assays for steroid hormone-induced responses.

In the case of “6α-methyl-17-hydroxyprogesterone [Medroxyprogesterone]”, in assay [1], the “pharmacological activity relative to progesterone” value is listed as “about 15 times”.

Take `C[C@H]1C[C@H]2[C@@H]3CCC4=CC(=O)C=C[C@]4(C)[C@@]3(Cl)[C@@H](O)C[C@]2(C)[C@@]1(O)C(=O)CO` [beclomethasone]: in the assay on liver C3A cells (early confluent C3A cells treated for 1, 3, or 6 hours, at a minimum of two out of the three time points), the “decrease in expression of SEQ ID NO:5” value is listed as “at least a two-fold decrease”. The “differential expression of SEQ ID NO:49” value in the assay on liver C3A cells is “differential expression”. As for `CC(=O)[C@H]1CC[C@H]2[C@@H]3CCC4=CC(=O)CC[C@]4(C)[C@H]3CC[C@]12C` [progesterone], the “expression of SEQ ID NO:59” value with C3A cells is on record as “decreased by at least two-fold”. The “differential expression of SEQ ID NO:49” value with liver C3A cells was “differential expression”.
